Key:
[1] = target: Tyrosine-protein kinase receptor UFO (Homo sapiens) (UniProt P30530); test: Inhibition of N-terminal GST-fused human AXL cytoplasmic domain (464 to 885 residues) expressed in baculovirus-infected Sf21 cells using CSKtide as substrate at 1 uM in presence of ATP by Mobility shift assay
[2] = target: Focal adhesion kinase 1 (Homo sapiens) (UniProt Q05397); test: Inhibition of N-terminal GST-fused truncated human FAK (376 to 1052 residues) expressed in baculovirus-infected Sf21 cells using Blk/Lyntide as substrate at 1 uM in presence of ATP by Mobility shift assay
[3] = target: Tyrosine-protein kinase Fer (Homo sapiens) (UniProt P16591); test: Inhibition of N-terminal GST-fused full length human FER (1 to 822 residues) expressed in baculovirus-infected Sf21 cells using Srctide as substrate at 1 uM in presence of ATP by Mobility shift assay
[4] = target: Fibroblast growth factor receptor 4 (Homo sapiens) (UniProt P22455); test: Inhibition of N-terminal GST-fused human FGFR4 cytoplasmic domain (460 to 802 residues) expressed in baculovirus-infected Sf21 cells using CSKtide as substrate at 1 uM in presence of ATP by Mobility shift assay
[5] = target: Tyrosine-protein kinase JAK1 (Homo sapiens) (UniProt P23458); test: Inhibition of N-terminal GST-fused human JAK1 catalytic domain (850 to 1154 residues) expressed in baculovirus-infected Sf21 cells using JAK1 substrate peptide at 1 uM in presence of ATP by Mobility shift assay
[6] = target: Tyrosine-protein kinase Mer (Homo sapiens) (UniProt Q12866); test: Inhibition of N-terminal GST-tagged human MER cytoplasmic domain (528 to 999 residues) expressed in baculovirus-infected Sf21 cells using CSKtide as substrate at 1 uM in presence of ATP by Mobility shift assay
[7] = target: Proto-oncogene tyrosine-protein kinase ROS (Homo sapiens) (UniProt P08922); test: Inhibition of N-terminal GST-tagged human ROS cytoplasmic domain (1883 to 2347 residues) expressed in baculovirus-infected Sf21 cells using IRS1 as substrate at 1 uM in presence of ATP by Mobility shift assay
[8] = target: Tyrosine-protein kinase receptor TYRO3 (Homo sapiens) (UniProt Q06418); test: Inhibition of N-terminal GST-tagged human TYRO3 cytoplasmic domain (453 to 890 residues) expressed in baculovirus-infected Sf21 cells using CSKtide as substrate at 1 uM in presence of ATP by Mobility shift assay
[9] = target: AMPK alpha2/beta1/gamma1 (Homo sapiens) (UniProt P54646+P54619+Q9Y478); test: Inhibition of N-terminal GST-tagged full-length human AMPK alpha2 (1 to 552 residues)/N-terminal GST-tagged human AMPK beta1 (1 to 270 residues)/N-terminal GST-tagged human AMPK gamma1 (1 to 331 residues) expressed in baculovirus-infected Sf21 cells using SAMS peptide as substrate at 1 uM in presence of ATP by Mobility shift assay
[10] = target: Aurora kinase C (Homo sapiens) (UniProt Q9UQB9); test: Inhibition of N-terminal GST-fused full length human AurC (1 to 275 residues) expressed in baculovirus-infected Sf21 cells using Kemptide as substrate at 1 uM in presence of ATP by Mobility shift assay
[11] = target: CDK6/cyclin D3 (Homo sapiens) (UniProt P30281+Q00534); test: Inhibition of N-terminal GST-tagged full length human CDK6 (1 to 326 residues)/GST-tagged human CyclinD3 (1 to 292 residues) expressed in baculovirus-infected Sf21 cells using DYRKtide-F as substrate at 1 uM in presence of ATP by Mobility shift assay
[12] = target: CDK9/cyclin T1 (Homo sapiens) (UniProt O60563+P50750); test: Inhibition of N-terminal GST-fused full length human CDK9 (1 to 372 residues)/human His-CyclinT1 (1 to 726 residues) expressed in baculovirus expression system using CDK9 substrate at 1 uM in presence of ATP by Mobility shift assay
[13] = target: Casein kinase I isoform epsilon (Homo sapiens) (UniProt P49674); test: Inhibition of N-terminal GST-fused human CK1-epsilon catalytic domain (1 to 348 residues) expressed in baculovirus expression system using CKtide as substrate at 1 uM in presence of ATP by Mobility shift assay
[14] = target: Glycogen synthase kinase-3 alpha (Homo sapiens) (UniProt P49840); test: Inhibition of N-terminal GST-fused full length human GSK3-alpha (1 to 483 residues) expressed in baculovirus expression system using CREBtide-p as substrate at 1 uM in presence of ATP by Mobility shift assay
[15] = target: Inhibitor of nuclear factor kappa-B kinase subunit epsilon (Homo sapiens) (UniProt Q14164); test: Inhibition of N-terminal GST-fused full length human IKK-epsilon(1 to 716 residues) expressed in baculovirus expression system using IkBalpha peptide as substrate at 1 uM in presence of ATP by Mobility shift assay
[16] = target: Serine/threonine-protein kinase Nek6 (Homo sapiens) (UniProt Q9HC98); test: Inhibition of N-terminal GST-fused full length human NEK6 (1 to 313 residues) expressed in baculovirus expression system using CDK7 peptide as substrate at 1 uM in presence of ATP by Mobility shift assay
[17] = target: NUAK family SNF1-like kinase 2 (Homo sapiens) (UniProt Q9H093); test: Inhibition of N-terminal GST-fused full length human Nuak2 (1 to 628 residues) expressed in baculovirus expression system using CHKtide as substrate at 1 uM in presence of ATP by Mobility shift assay
[18] = target: Mitogen-activated protein kinase 14 (Homo sapiens) (UniProt Q16539); test: Inhibition of N-terminal GST-fused truncated human p38alpha (9 to 352 residues) expressed in Escherichia coli expression system using Modified Erktide as substrate at 1 uM in presence of ATP by Mobility shift assay
[19] = target: Mitogen-activated protein kinase 13 (Homo sapiens) (UniProt O15264); test: Inhibition of N-terminal GST-fused full length human p38delta (1 to 365 residues) expressed in Escherichia coli expression system using Modified Erktide as substrate at 1 uM in presence of ATP by Mobility shift assay
[20] = target: Protein kinase C zeta type (Homo sapiens) (UniProt Q05513); test: Inhibition of N-terminal GST-fused human full length PKC-zeta (1 to 592 residues ) expressed in baculovirus expression system using PKC peptide as substrate at 1 uM in presence of ATP by Mobility shift assay
[21] = target: Serine/threonine-protein kinase D3 (Homo sapiens) (UniProt O94806); test: Inhibition of N-terminal GST-fused full length human PKD3 (1 to 890 residues) expressed in baculovirus expression system using GS peptide as substrate at 1 uM in presence of ATP by Mobility shift assay
[22] = target: Ribosomal protein S6 kinase alpha-3 (Homo sapiens) (UniProt P51812); test: Inhibition of N-terminal GST-fused human full length RSK2 (1 to 740 residues) expressed in baculovirus expression system using S6K peptide(N-FL) as substrate at 1 uM in presence of ATP by Mobility shift assay

Mitogen-activated protein kinase 13 (Homo sapiens), sequence (O15264 whole entry, the tested form may be a part): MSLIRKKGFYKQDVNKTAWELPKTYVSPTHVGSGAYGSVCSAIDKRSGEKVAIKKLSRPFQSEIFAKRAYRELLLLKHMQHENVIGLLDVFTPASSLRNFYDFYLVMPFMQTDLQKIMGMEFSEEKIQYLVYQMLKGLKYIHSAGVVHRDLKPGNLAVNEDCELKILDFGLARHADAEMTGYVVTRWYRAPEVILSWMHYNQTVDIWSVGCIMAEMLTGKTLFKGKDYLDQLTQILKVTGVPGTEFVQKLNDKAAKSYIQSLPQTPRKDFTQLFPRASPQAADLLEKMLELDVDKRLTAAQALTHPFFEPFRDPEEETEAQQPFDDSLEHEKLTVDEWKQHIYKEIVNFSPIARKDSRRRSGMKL
NUAK family SNF1-like kinase 2 (Homo sapiens), sequence (Q9H093 whole entry, the tested form may be a part): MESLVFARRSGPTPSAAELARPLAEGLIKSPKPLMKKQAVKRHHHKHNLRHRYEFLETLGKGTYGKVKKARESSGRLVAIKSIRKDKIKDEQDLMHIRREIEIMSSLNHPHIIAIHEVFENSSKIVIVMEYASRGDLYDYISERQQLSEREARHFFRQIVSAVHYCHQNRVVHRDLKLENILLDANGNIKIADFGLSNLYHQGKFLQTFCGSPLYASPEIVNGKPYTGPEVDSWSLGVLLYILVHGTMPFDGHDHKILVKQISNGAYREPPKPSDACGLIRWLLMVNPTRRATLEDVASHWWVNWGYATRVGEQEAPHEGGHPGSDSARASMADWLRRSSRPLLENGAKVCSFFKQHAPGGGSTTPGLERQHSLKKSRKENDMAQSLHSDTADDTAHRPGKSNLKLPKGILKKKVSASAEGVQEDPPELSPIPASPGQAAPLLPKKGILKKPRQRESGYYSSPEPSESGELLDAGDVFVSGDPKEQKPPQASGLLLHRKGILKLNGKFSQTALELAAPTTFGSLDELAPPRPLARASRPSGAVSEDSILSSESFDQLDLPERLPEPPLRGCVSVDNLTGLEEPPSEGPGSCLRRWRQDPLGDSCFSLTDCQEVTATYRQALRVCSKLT
AMPK alpha2/beta1/gamma1 (Homo sapiens), sequence (P54619 whole entry partner, the tested form may be a part): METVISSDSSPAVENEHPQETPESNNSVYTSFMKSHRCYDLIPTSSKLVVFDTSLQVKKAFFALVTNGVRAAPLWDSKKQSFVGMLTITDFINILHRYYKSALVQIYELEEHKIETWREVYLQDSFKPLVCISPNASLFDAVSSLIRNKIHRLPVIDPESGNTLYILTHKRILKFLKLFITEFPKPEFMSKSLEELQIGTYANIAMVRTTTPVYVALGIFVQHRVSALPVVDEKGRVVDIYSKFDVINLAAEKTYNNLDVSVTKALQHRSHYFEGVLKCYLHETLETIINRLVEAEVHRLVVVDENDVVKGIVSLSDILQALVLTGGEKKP
AMPK alpha2/beta1/gamma1 (Homo sapiens), sequence (P54646 whole entry, the tested form may be a part): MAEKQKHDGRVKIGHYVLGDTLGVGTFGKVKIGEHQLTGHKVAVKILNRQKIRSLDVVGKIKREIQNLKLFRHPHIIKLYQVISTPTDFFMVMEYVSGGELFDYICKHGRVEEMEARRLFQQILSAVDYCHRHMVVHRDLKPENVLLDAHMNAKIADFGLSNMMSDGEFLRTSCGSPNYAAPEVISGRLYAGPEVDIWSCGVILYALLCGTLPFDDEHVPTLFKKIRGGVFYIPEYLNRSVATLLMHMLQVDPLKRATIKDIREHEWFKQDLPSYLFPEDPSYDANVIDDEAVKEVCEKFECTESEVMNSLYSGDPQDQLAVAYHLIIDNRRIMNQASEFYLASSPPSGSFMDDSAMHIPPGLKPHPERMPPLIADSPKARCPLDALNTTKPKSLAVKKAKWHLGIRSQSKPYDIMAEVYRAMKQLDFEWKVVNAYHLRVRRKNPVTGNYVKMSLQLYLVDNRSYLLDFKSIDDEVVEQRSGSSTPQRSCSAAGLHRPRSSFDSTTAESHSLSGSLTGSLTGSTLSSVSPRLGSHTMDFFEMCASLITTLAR
AMPK alpha2/beta1/gamma1 (Homo sapiens), sequence (Q9Y478 2-270 partner limits assumed): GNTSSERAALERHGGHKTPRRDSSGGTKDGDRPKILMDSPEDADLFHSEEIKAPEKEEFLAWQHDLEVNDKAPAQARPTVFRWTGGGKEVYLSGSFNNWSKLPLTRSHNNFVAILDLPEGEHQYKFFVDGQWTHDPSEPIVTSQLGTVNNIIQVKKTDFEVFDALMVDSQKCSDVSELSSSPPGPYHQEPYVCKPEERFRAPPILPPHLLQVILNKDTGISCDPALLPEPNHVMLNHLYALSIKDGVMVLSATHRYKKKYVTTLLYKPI
Proto-oncogene tyrosine-protein kinase ROS (Homo sapiens), sequence (P08922 whole entry, the tested form may be a part): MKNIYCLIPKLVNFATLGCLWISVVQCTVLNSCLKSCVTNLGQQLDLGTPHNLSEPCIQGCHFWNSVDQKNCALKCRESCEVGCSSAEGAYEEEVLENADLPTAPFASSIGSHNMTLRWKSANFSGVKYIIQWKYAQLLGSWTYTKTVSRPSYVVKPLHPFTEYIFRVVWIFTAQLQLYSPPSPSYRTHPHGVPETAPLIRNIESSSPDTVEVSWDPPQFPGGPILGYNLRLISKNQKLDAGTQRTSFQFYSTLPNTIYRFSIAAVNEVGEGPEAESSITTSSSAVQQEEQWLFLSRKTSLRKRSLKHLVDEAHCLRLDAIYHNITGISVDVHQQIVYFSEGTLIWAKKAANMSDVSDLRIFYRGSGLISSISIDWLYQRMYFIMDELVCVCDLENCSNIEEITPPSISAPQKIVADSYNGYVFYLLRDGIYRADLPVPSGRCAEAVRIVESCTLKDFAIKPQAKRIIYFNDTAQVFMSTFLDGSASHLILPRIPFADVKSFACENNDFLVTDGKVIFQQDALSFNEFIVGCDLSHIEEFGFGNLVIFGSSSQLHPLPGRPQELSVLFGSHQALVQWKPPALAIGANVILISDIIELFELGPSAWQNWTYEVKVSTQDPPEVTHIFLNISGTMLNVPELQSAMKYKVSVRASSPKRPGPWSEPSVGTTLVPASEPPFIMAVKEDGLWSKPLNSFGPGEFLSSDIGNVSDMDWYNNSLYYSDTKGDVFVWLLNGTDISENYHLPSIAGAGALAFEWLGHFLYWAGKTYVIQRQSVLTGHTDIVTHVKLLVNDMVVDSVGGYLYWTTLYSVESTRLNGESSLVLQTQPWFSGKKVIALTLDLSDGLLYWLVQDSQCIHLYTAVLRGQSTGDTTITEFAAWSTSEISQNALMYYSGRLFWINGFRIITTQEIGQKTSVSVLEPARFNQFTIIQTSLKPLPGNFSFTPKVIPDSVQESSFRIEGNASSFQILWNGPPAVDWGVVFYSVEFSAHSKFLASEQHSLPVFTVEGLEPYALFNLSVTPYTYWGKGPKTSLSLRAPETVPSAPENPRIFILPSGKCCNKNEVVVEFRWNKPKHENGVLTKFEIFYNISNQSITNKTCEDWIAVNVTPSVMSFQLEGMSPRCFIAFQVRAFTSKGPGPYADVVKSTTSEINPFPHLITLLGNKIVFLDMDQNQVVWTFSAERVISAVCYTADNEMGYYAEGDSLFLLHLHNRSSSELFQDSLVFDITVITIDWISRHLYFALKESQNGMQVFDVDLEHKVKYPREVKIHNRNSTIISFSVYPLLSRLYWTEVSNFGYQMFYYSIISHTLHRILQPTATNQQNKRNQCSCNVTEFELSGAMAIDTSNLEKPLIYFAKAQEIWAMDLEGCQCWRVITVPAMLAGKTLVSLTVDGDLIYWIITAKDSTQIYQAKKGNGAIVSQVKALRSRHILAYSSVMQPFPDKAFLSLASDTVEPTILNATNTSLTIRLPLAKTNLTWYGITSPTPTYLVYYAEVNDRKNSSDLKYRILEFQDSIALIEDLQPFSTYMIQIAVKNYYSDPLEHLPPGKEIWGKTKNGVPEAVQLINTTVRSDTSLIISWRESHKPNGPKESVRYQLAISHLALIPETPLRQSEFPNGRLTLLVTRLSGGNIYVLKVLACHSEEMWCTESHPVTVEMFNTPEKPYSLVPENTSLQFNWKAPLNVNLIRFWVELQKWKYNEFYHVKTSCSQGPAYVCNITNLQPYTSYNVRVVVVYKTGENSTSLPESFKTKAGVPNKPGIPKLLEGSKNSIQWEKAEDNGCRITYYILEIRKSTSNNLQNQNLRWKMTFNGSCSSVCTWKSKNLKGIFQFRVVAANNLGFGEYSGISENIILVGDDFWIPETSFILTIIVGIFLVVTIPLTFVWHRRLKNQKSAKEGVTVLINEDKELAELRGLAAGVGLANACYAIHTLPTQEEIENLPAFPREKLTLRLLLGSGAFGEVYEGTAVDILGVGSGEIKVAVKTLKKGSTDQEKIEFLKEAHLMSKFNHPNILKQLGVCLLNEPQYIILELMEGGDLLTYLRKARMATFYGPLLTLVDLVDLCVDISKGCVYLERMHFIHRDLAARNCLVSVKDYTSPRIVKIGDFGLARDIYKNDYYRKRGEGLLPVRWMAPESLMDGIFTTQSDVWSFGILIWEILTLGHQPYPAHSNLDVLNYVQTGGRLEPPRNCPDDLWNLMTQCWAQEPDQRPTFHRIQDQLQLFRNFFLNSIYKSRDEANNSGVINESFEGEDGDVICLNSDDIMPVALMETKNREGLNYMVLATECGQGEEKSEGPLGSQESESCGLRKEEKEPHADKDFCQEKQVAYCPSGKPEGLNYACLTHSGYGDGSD
Mitogen-activated protein kinase 14 (Homo sapiens), sequence (Q16539 whole entry, the tested form may be a part): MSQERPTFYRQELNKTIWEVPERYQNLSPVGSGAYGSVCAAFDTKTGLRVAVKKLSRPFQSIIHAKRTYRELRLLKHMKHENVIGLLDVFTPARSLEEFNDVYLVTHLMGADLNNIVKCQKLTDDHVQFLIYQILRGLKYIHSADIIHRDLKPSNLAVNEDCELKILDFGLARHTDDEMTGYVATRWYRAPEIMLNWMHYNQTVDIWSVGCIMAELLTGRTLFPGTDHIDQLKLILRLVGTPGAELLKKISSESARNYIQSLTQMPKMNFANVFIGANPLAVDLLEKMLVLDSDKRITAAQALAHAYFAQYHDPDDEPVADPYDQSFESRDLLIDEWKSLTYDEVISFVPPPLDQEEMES

Row | SMILES | inhibition [1] | inhibition [2] | inhibition [3] | inhibition [4] | inhibition [5] | inhibition [6] | inhibition [7] | inhibition [8] | inhibition [9] | inhibition [10] | inhibition [11] | inhibition [12] | inhibition [13] | inhibition [14] | inhibition [15] | inhibition [16] | inhibition [17] | inhibition [18] | inhibition [19] | inhibition [20] | also measured
1 | Cc1cc(C)c(CNC(=O)c2cc(Br)c3c(c2C)O[C@@](C)([C@H]2CC[C@H](N(C)C)CC2)O3)c(=O)[nH]1 | -0.5% | -1.5% | 0.1% | -3.7% | -3.3% | -1.5% | -2.1% | 0.9% | -1.2% | -9.2% | -8.9% | -5.3% | 1.5% | 1.8% | -5.6% | -0.1% | -4% | -7.2% | -4.7% | 3.2% | inhibition [21]: 6.7%; inhibition [22]: -4%
2 | Cc1cc(C)c(CNC(=O)c2cc(Cl)c3c(c2C)O[C@@](C)([C@H]2CC[C@H](N(C)C)CC2)O3)c(=O)[nH]1 [VALEMETOSTAT] | -3.5% | -2.3% | -3.7% | -5.6% | -3.3% | -1.6% | -0.9% | -2.6% | -0.7% | 21.9% | -4.9% | 4.3% | -2.2% | 1.9% | -2.8% | 0.7% | 2.1% | -8% | -6.9% | 9.3% | inhibition [21]: 3.5%; inhibition [22]: -0.5%

Reference: ChEMBL document CHEMBL5647694, “Novel orally bioavailable EZH1/2 dual inhibitors with greater antitumor efficacy than an EZH2 selective inhibitor” (Cancer Sci, 2017)
